# Experimental data from paper PMC8131363 (Scientific Reports, 2021).
# pEC50: −log10 of the molar value.
# Tests used:
# hCaSR = target: T1, hCaSR (Homo sapiens, UniProt P41180); assay: hCaSR transiently expressed in HEK293/natClytin, agonist luminescence assay; assay type: cell-based; conditions: transiently expressed hCaSR; > 3 mM = maximal response not reached; read-out: hCaSR EC50
# T1 construct: expressed in transfected cells; host or cells: HEK293/natClytin (transient, pcDNA6 as delivered by GeneArt)
# T1 sequence (P41180 20-1078): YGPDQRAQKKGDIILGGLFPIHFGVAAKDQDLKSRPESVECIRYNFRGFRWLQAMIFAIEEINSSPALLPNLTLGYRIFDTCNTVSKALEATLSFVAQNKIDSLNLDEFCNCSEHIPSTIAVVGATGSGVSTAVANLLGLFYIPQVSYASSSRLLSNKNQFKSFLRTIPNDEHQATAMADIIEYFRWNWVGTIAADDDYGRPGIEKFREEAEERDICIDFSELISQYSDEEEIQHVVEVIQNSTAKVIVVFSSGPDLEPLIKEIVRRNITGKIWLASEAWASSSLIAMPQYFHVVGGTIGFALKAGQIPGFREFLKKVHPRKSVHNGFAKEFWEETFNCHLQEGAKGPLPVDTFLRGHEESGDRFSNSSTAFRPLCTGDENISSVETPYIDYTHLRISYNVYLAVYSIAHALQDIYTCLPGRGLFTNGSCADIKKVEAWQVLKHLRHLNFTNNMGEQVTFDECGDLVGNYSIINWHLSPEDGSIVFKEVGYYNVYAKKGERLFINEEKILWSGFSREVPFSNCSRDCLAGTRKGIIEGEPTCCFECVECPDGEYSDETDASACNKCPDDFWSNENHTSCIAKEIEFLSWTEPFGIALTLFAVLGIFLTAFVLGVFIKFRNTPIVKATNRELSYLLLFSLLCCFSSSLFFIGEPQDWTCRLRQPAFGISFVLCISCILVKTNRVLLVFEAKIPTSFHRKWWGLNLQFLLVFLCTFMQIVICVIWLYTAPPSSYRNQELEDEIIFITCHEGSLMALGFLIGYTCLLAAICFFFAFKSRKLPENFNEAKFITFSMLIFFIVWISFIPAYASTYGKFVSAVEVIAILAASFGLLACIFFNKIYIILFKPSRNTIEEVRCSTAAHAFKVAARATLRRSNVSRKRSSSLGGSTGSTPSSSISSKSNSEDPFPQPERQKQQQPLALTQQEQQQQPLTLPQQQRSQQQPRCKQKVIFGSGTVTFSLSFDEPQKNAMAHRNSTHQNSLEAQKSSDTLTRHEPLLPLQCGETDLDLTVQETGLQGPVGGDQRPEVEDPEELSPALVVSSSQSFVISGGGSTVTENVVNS
# Protocol: The coding sequence of the Felis catus[52] and Homo sapiens[53] CaSR gene was synthesised by GeneArt (Thermo Fisher Scientific). The cat coding sequence was excised from the GeneArt construct and inserted in pcDNA3.1 for constitutive and transient expression or pcDNA5/ TO for inducible expression. For the human sequence the pcDNA6 vector as delivered by GeneArt was used without further sub-cloning.
# All transient transfections were performed with Lipofectamine 2000 (Invitrogen) according to the manufacturer’s protocol.
# human sensory panel = human sensory panel triangle test; assay type: in vivo; conditions: humans, CaCl2 8 mM, MgCl2 8 mM; for % correct, triangle test in umami mix: GSH 0.65 mM in MSG/IMP/NaCl mix vs mix blank; for % correct, triangle test in water: GSH 0.65 mM in mineral water vs blank
# Protocol: All solutions were prepared using a commercial mineral water, Highland Spring (Highland Spring group, Blackford, UK) previously tested on our taste sensory panel and found to have the lowest level of inherent taste, thus being the least disruptive to taste tests. All taste-active substances were food-grade or of the highest available purity.
# For tests with CaCl2, MgCl2, and GSH, each compound was dissolved directly in water, at 8 mM, 8 mM and 0.65 mM, respectively. Each compound was also tested in a mixture of umami and salty compounds, previously described in kokumi sensory evaluation, composed of 0.02% MSG, 0.02% IMP and 0.07% NaCl.
# The human sensory panel experimental protocols were approved by the Waltham Animal Welfare and Ethical Review Board and all methods were carried-out in accordance with all local regulations and guidelines. Informed consent was obtained from all subjects, and all participants were over the legal age of consent. All assessors used for the tests were validated following the process outlined in ISO 8586:2012(E). Briefly, all assessors were evaluated on their capacity to recognise tastants from blank solutions and successfully identify the basic taste modalities presented. The panellists were also assessed on their ability to correctly rank solutions of a tastant in ascending concentration order. The measures for successful validation of panellists were applied to all who completed the assessment.
# For the kokumi tastant tests, six tests in all were completed, two with each CaSR agonist chosen CaCl2, MgCl2, or GSH. The number of participating panellists for each test varied between twenty-four and twenty-five. […] No replicate evaluations were done by the same assessor. For each compound, the assessors were presented with […] separate forced choice triangle tests. In the first test, the compound was dissolved in spring water and compared to a blank of pure spring water, in the second the compound was dissolved into the previously described umami mix[8] and compared to a blank of the umami mix. In each separate test, the panellists were presented with the samples in a randomised order to eliminate potential bias. Panellists were presented either two blanks and a sample or two samples and a blank and asked to identify the sample that was different in the triad. Panellists were asked to give a brief description of why the sample chosen was different. If they were unable to detect a difference, the assessors were instructed to choose a sample at random and specify in the description that they were unable to make a difference between the samples[61].
# The data was analysed for statistical significance using a standard methodology described in[61]. For this, the number of correct answers were compared to the number of assessors in each test, at the α-risk level chosen for the test. […] As determined by a one tailed test, the minimum number of panellists required to successfully determine difference between samples was thirteen for the chosen α value.
# Initially, a contingency table of the number of correct answers and the number of wrong answers was created for each test. Then, Pearson’s chi-square test was then applied to the resulting table, with the probability of a correct answer at random being 1/ 3, while the probability of a wrong answer was 2/ 3.
pEC50 (hCaSR),Compound,"% correct, triangle test in umami mix (human sensory panel)","% correct, triangle test in water (human sensory panel)"
2.41,"[Cl-].[Cl-].[Mg+2] [Mg^2+, MgCl2]",50%,50%
3.10,"[Ca+2].[Cl-].[Cl-] [Ca^2+, CaCl2]",36%,56%
< 2.52,N[C@@H](CCC(=O)N[C@@H](CS)C(=O)NCC(=O)O)C(=O)O [Glutathione],58.3%,37.5%
